Earlier results in PMC4826315 (Journal of molecular biology, 2016).
pIC50: −log10 of the molar value.

What was measured:
retinoblastoma tumors = settings: mouse model system
Mdm2 = settings: read-out: IC50, inhibition of p53 binding to Mdm2; FP assay

SMILES: COc1ccc(C2=N[C@@H](c3ccc(Cl)cc3)[C@@H](c3ccc(Cl)cc3)N2C(=O)N2CCNC(=O)C2)c(OC(C)C)c1 [Nutlin-3a]
- effect on retinoblastoma tumors (retinoblastoma tumors): caused regression of retinoblastoma tumors
